Experimental data taken from patent US20250163057A1, “DCN-1 MODULATING COMPOUNDS AND METHODS OF USE THEREOF” (Cellarity, Inc., priority 2023, published 2025).

System: HBG1 mRNA and HbF protein in bone marrow cells
Assay: Induction of fetal hemoglobin by hydroxyurea and I-73 in human CD34+ cell reconstituted immunodeficient mice, with analysis of synergistic effect
Type: in vivo, NBSGW mice engrafted with human CD34+ cells
Description: The model employed for assessment of induction of fetal hemoglobin by I-73 and hydroxyurea involved the use of human stem cell-reconstituted immunodeficient mice. Specifically, three hundred thousand human CD34-positive cells from G-CSF-mobilized human peripheral blood […] (PBMCs) were injected into the tail veins of NOD.Cg-KitW-41J Tyr+Prkdcscid Il2rgtm1Wjl/ThomJ (NBSGW) mice (JAX Strain No. 026622) on day 0. Twelve weeks later, mice were checked for human cell engraftment by sampling PBMCs from blood taken from the tail vein and staining for expression of murine or human CD45 by flow cytometry. After removing from the study those mice having greater than 10% human cells or less than 1% human cells in their peripheral blood, the remaining mice were randomized into treatment groups based on the human cell percentage. Thirteen weeks post engraftment, treatment was initiated with either hydroxyurea, I-73, or a combination of both compounds. Hydroxyurea was formulated in PBS (pH 7.4) and I-73 was formulated in 5% Cremophor RH 40/20% hydroxypropyl-β-cyclodextrin (Crem-CD) daily. Mice received either PBS or hydroxyurea each morning and I-73 or Crem-CD each afternoon by oral gavage. After twenty days of daily treatment, the mice were euthanized and their bone marrow (femurs, tibia and critae) were individually collected for subsequent analysis.
Bone marrow cell pellets (total 500K cells) were lysed in 20 μL of RLT (QIAGEN, 79216) with 1×β-mercaptoethanol (Gibco, 21985-023) and H2O followed by hybridizations. Hybridizations were done in a total volume of 15 μL [3 μL of RNA lysate added to master mix of 12 μL probe A/B (purchased from IDT), capture probe/reporter probes (NanoString™, XT TagSet-24, 121000602), proteinase K (Fisher Scientific, E00491) and H2O suspended in hybridization buffer]. Samples were hybridized at 65° C. for 22 hr. Following hybridization, the tripartide complexes were purified, immobilized by nCounter Prep Station and imaged by Digital Analyzer (nCounter MAX/FLEX Analysis System), to generate digital counts of barcodes corresponding to each target in the multiplexed reaction. Labeled barcodes obtained from unamplified extracts were counted at 555 images or field of view (FOV). The barcode counts for each sample were recorded in Reporter Code Count (RCC) files that are imported into nSolver analysis software (provided with CodeSet by NS) for quality control evaluation.
To assess levels of fetal hemoglobin by AlphaLISA, cells (200 k bone marrow cells/well) were lysed by resuspending pellets in 200 μL of lysis buffer plus protease inhibitor cocktail (100×), mixed well and incubating at room temperature for 30 minutes on the plate shaker @300 RPMs. Samples were then diluted 1:10 in a new 96-well round bottom plate by taking 10 uL of lysate and adding 90 μL of AlphaLISA immunoassay buffer. To create the “reaction plate”, 20 μL of Acceptor Beads (50 ug/mL final concentration) was added to each well using a multi-channel pipet. 10 uL of diluted cell lysate was added to the wells and mixed well. 20 μL of AlphaLISA immunoassay buffer was added to each well. Biotinylated antibody (final concentration) was then added to each well. The reaction plate on then placed on a plate shaker at 300 rpm for one hour to incubate at room temperature. After the first incubation was complete, 50 μL of Donor Beads ([…] final concentration) was added to each well and mixed well, keeping the plate in the dark. The covered plate was placed on a shaker at 350 rpm for 30 minutes to incubate at room temperature. After incubation, all 100 uL in each to an AlphaPlate in the dark. Plates were read on a VictorNIVO using the “Alpha 96 Well” setting. Alpha reading was programmed as the default setting with emission at 700 ms and 575/110n. […]

CCN1C(=O)[C@@H](NC(=O)c2cccc(C(F)(F)F)c2)[C@@H](c2ccc(F)cc2)c2c([C@@H](C)NC#N)nn(-c3ccccc3)c21 [Compound I-73, N-((4S,5S)-3-((R)-1-cyanamidoethyl)-7-ethyl-4-(4-fluorophenyl)-6-oxo-1-phenyl-4,5,6,7-tetrahydro-1H-pyrazolo[3,4-b]pyridin-5-yl)-3-(trifluoromethyl)benzamide]
average increase of HbF % over vehicle (I-73 25 mg/kg alone, WLS ANOVA estimate): 1.11
percentage of HbF protein by HPLC in GlyA-positive bone marrow cells (compared with vehicle treatment group, FIG. 7): significant increase
percentage of bone marrow cells expressing human CD45 (in vivo): did not alter
HbF level on a per erythroid progenitor (GlyA-positive) cell basis by AlphaLISA (treatment alone): induced increased levels of HbF
